Among the data in US20240246942A1, “KINASE INHIBITORS FOR THE TREATMENT OF NEURODEGENERATIVE DISEASES” (priority 2020, published 2024) are remaining activity values, retold here.

Holding throughout (experiment): biochemical
Experiment [1] deals with T1, panel of 374 wild-type kinases (Homo sapiens, UniProt Q5TCY1).
T1 construct: purchased Reaction Biology Corporation
Particulars: kinase TTBK1, read-out: % Enzyme Activity (relative to DMSO controls).

Experiment [2] addresses T2, panel of 374 wild-type kinases (Homo sapiens, UniProt Q15139).
T2 construct: purchased Reaction Biology Corporation
T2 sequence (Q15139 1-912): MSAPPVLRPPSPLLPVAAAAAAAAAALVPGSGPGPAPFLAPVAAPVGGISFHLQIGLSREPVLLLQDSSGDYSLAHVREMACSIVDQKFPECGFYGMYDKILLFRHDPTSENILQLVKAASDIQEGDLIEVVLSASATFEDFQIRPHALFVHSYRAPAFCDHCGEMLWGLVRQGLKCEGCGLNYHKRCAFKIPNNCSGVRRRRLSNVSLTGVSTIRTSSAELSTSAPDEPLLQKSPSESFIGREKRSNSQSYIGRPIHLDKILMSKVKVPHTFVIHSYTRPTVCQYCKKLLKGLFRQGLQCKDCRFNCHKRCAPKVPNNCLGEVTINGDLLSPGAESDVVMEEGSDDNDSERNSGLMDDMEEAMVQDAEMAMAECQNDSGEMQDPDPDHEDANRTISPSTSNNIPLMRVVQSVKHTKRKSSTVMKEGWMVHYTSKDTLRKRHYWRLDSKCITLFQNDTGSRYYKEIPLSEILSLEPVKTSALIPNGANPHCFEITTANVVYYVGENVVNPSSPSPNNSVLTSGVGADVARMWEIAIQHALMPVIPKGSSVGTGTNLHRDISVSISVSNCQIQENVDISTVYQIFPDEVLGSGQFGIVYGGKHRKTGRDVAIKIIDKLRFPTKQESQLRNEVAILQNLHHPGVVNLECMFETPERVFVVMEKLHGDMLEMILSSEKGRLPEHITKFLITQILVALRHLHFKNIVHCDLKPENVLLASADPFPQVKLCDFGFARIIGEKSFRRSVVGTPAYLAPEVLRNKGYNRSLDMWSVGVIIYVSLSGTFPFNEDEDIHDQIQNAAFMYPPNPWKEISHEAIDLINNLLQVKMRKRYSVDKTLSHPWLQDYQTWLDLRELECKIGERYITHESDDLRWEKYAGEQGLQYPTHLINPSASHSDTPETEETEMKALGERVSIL
Particulars: read-out: % Enzyme Activity (relative to DMSO controls), kinase PKCmu/PRKD1.

Experiment [3] concerns the target T3, panel of 374 wild-type kinases (Homo sapiens, UniProt P35626).
T3 construct: purchased Reaction Biology Corporation
T3 sequence (P35626 1-688): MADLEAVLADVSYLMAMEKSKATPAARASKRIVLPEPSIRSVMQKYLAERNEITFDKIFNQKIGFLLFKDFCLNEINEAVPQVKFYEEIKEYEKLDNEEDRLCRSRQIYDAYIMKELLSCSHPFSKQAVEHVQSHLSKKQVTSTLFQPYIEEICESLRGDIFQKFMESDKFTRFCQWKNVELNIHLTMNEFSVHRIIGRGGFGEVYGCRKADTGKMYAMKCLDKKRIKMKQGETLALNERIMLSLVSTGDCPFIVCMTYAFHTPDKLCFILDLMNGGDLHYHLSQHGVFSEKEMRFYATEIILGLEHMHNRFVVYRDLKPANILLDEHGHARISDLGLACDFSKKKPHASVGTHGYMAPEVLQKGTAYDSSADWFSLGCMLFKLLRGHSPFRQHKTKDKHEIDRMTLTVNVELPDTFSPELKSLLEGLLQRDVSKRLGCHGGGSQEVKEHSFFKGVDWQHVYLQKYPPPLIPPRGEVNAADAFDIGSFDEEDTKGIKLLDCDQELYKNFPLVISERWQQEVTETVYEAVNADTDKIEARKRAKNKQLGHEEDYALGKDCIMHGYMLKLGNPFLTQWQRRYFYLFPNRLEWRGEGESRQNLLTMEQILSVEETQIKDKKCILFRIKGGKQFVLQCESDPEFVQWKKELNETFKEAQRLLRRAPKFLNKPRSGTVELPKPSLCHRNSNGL
The note with it: read-out: % Enzyme Activity (relative to DMSO controls), GRK3.

For experiment [4], the target named is T4, panel of 374 wild-type kinases (Homo sapiens, UniProt O00444).
T4 construct: purchased Reaction Biology Corporation
T4 sequence (O00444 1-970): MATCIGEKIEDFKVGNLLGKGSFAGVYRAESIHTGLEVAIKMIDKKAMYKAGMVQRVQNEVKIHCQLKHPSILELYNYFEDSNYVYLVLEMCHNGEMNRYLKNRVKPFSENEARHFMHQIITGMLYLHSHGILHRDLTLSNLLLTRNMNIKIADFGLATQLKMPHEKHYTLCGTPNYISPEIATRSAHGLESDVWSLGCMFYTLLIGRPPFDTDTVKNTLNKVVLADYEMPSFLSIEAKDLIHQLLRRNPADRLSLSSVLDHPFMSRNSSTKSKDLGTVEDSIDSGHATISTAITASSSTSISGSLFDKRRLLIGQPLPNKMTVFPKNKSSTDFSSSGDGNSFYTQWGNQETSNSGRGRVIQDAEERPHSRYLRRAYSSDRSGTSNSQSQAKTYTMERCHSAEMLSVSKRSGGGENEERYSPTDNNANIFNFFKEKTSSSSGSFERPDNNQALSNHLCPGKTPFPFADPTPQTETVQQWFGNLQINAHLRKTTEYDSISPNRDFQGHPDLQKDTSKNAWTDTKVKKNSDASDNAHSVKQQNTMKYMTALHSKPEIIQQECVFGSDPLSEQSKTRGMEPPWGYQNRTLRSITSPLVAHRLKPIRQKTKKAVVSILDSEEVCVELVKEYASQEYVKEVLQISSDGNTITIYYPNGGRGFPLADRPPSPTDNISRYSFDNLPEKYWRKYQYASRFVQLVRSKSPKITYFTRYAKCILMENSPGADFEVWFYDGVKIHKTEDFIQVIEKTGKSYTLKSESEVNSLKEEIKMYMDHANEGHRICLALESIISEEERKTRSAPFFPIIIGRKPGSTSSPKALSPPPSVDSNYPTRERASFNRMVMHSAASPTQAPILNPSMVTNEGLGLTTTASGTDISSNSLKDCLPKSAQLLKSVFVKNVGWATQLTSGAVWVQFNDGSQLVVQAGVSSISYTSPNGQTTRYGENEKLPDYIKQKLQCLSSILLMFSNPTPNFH
The note with it: read-out: % Enzyme Activity (relative to DMSO controls), kinase PLK4/SAK.

The target in experiment [5] is T5, panel of 374 wild-type kinases (Homo sapiens, UniProt P48730).
T5 construct: purchased Reaction Biology Corporation
T5 sequence (P48730 whole entry): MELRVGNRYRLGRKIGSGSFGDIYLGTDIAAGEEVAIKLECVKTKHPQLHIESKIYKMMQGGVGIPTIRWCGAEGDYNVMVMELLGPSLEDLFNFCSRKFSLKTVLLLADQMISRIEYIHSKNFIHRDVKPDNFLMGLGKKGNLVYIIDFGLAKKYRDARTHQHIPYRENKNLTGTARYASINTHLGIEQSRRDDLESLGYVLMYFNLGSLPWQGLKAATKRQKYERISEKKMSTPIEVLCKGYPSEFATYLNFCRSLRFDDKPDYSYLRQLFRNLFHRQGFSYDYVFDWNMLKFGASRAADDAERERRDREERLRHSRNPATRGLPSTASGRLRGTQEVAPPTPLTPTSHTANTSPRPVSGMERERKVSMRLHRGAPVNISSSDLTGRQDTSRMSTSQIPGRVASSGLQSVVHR
Particulars: read-out: % Enzyme Activity (relative to DMSO controls), CK1d.

T1 sequence (Q5TCY1 whole entry): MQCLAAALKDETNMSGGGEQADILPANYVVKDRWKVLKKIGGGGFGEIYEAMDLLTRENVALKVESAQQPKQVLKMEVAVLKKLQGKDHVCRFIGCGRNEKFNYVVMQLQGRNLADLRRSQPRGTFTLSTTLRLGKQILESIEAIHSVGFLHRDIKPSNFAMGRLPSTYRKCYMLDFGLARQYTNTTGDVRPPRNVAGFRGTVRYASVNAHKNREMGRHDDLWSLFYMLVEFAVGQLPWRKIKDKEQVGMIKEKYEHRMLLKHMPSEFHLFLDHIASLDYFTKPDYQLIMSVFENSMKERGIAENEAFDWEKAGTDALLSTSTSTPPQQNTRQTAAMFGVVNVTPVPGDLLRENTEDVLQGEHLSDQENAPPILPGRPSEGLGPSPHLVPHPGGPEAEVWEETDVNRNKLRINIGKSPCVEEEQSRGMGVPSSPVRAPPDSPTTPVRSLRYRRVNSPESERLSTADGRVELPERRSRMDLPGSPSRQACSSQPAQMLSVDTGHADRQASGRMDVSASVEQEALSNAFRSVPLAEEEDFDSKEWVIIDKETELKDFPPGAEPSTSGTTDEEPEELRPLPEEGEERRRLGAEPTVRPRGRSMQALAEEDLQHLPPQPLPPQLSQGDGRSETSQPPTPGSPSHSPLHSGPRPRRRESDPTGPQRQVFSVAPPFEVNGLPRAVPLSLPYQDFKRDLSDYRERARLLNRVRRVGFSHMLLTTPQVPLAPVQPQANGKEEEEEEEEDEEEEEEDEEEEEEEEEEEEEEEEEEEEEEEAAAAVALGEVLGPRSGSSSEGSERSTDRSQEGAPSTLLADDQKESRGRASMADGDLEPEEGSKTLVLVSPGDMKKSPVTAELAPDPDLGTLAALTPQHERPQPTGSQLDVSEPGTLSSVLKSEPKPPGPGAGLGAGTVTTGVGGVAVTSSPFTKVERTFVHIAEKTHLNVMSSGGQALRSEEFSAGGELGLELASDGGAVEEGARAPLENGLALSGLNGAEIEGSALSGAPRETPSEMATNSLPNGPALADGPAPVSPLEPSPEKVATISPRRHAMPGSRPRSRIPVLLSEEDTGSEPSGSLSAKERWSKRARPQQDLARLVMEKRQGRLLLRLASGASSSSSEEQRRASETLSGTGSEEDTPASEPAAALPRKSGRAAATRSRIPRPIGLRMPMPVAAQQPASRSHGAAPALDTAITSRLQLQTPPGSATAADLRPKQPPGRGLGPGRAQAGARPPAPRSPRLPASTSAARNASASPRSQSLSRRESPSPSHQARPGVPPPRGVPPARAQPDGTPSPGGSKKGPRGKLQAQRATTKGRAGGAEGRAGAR

Turning to `O=C(Nc1cnn(-c2csc(C(=O)NC3COC3)c2)c1)Nc1ccccc1Cl` [Compound 17, 4-(4-(3-(2-chlorophenyl)ureido)-1H-pyrazol-1-yl)-N-(oxetan-3-yl)thiophene-2-carboxamide], the remaining activity at 5 µM in experiment [1] was 97.2%; in experiment [2] it was 114%; in experiment [3], 102%; in experiment [4] it was 88.2%; in experiment [5], 101%.
In the case of `O=C(Nc1cnn(-c2csc(C(=O)NC3COC3)c2)c1)Nc1c(F)cccc1Cl` [Compound 25, 4-(4-(3-(2-chloro-6-fluorophenyl)ureido)-1H-pyrazol-1-yl)-N-(oxetan-3-yl)thiophene-2-carboxamide], the remaining activity at 5 µM in experiment [1] amounted to 82.3%; in experiment [2] it was 90.7%; in experiment [3], 101%; in experiment [4], 84.3%; in experiment [5], 117%.
Turning to `Cc1sc(C(=O)NC2COC2)cc1-n1cc(NC(=O)Nc2c(F)cccc2Cl)cn1` [Compound 27, 4-(4-(3-(2-chloro-6-fluorophenyl)ureido)-1H-pyrazol-1-yl)-5-methyl-N-(oxetan-3-yl)thiophene-2-carboxamide], the remaining activity at 10 µM amounted to 113% in experiment [1] (10 uM); 93.3% in experiment [2] (10 uM); 107% in experiment [3] (10 uM); 100% in experiment [4] (10 uM); 112% in experiment [5] (10 uM).
